# Measurements as given in ChEMBL document CHEMBL5214954, “Identification of PI3K/HDAC Dual-targeted inhibitors with subtype selectivity as potential therapeutic agents against solid Tumors: Building HDAC6 potency in a Quinazolinone-based PI3Kδ-selective template” (Bioorg Med Chem, 2022).
# Key:
# [1] = Half life in male Sprague-Dawley rat at 2 mg/kg, iv measured upto 24 hrs by LC-MS/MS analysis; format: ADME, organism-based; details: in vivo
# [2] = AUC (0 to infinity) in male Sprague-Dawley rat at 2 mg/kg, iv measured upto 24 hrs by LC-MS/MS analysis; format: ADME, organism-based; set-up: time < 24 hrs, dose 2 mg/kg, route iv; details: in vivo
# [3] = tested on: T47D; assay: Downregulation of pSTAT3 expression in IL-6-stimulated human T47D cells at 10 to 1000 nM measured by western blot analysis; format: functional, cell-based; details: dose 10-1000 nM, DDE = dose-dependent effect
# [4] = target: T1, Histone deacetylase 8 (Homo sapiens, UniProt Q9BY41)
# T1 sequence (Q9BY41 whole entry): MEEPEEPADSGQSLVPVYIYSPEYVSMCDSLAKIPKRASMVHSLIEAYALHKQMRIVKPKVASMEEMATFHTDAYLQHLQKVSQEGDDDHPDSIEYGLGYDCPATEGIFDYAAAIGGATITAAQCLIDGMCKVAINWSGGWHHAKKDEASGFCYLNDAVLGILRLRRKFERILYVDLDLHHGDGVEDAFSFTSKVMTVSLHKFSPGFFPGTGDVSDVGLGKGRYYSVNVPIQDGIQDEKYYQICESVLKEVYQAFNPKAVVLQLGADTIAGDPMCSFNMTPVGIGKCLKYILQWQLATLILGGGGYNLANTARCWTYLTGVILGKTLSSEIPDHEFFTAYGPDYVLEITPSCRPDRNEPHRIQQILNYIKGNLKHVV
# Description: Inhibition of HDAC8 (unknown origin) measured by fluorescence based assay
# [5] = tested on: SU-DHL-6; assay: Antiproliferative activity against human SU-DHL-6 cells incubated for 72 hrs by CCK-8 assay; format: functional, cell-based; details: SU-DHL-6, 72 h
# [6] = tested on: KM12; assay: Antiproliferative activity against human KM12 cells incubated for 72 hrs by CCK-8 assay; format: functional, cell-based; details: KM12, 72 h
# [7] = tested on: T47D; assay: Antiproliferative activity against human T47D cells incubated for 72 hrs by CCK-8 assay; format: functional, cell-based
# [8] = target: Phosphatidylinositol 4,5-bisphosphate 3-kinase catalytic subunit alpha isoform (Homo sapiens, UniProt P42336); assay: Inhibition of PI3Kalpha (unknown origin) measured by ADP-Glo assay
# [9] = target: T2, Protein deacetylase HDAC6 (Homo sapiens, UniProt Q9UBN7)
# T2 sequence (Q9UBN7 whole entry): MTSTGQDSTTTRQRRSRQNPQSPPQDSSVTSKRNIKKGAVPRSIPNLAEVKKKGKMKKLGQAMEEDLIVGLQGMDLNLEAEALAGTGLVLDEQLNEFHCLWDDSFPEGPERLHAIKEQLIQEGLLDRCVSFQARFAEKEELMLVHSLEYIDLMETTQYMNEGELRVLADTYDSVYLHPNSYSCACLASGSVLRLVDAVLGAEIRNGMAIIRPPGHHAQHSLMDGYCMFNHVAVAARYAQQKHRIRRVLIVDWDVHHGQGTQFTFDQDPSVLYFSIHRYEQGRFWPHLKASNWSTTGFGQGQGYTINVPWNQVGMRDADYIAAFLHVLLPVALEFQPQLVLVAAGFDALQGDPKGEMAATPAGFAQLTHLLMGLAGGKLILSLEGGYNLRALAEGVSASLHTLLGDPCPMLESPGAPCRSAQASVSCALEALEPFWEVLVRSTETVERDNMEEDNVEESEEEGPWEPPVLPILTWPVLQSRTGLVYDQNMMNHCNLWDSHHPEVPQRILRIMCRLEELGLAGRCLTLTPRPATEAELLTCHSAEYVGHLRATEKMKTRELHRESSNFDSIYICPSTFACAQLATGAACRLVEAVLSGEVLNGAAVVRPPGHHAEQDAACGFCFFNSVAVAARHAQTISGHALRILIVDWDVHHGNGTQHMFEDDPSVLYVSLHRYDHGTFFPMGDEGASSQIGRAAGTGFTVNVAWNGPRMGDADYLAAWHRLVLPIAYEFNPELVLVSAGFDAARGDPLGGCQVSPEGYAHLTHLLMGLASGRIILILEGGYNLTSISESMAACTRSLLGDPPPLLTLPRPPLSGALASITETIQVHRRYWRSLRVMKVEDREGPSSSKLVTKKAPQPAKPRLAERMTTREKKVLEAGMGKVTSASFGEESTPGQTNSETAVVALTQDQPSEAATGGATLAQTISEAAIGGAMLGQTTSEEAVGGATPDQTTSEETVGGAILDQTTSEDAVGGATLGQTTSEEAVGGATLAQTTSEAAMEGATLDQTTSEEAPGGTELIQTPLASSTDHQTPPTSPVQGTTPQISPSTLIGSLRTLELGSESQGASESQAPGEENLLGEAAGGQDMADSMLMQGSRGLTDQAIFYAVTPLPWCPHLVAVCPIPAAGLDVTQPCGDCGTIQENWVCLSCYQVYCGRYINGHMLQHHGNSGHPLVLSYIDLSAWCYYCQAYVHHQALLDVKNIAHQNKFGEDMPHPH
# Description: Inhibition of HDAC6 (unknown origin) measured by fluorescence based assay
# [10] = Clearance in male Sprague-Dawley rat at 2 mg/kg, iv measured upto 24 hrs by LC-MS/MS analysis; format: ADME, organism-based; details: in vivo
# [11] = tested on: T47D; assay: Downregulation of PD-L1 expression in human T47D cells at 10 to 1000 nM measured by western blot analysis; format: functional, cell-based; details: dose 10-1000 nM, DDE = dose-dependent effect
# [12] = target: Phosphatidylinositol 4,5-bisphosphate 3-kinase catalytic subunit gamma isoform (Homo sapiens, UniProt P48736); assay: Inhibition of PI3Kgamma (unknown origin) measured by ADP-Glo assay
# [13] = tested on: HCT-116; assay: Antiproliferative activity against human HCT-116 cells incubated for 72 hrs by CCK-8 assay; format: functional, cell-based; details: HCT-116, 72 h
# [14] = species on record: Homo sapiens; assay: Selectivity ratio, ratio IC50 for inhibition of PI3Kgamma (unknown origin) to IC50 for inhibition of PI3Kdelta (unknown origin)
# Sequence of Phosphatidylinositol 4,5-bisphosphate 3-kinase catalytic subunit gamma isoform (P48736 whole entry, canonical isoform): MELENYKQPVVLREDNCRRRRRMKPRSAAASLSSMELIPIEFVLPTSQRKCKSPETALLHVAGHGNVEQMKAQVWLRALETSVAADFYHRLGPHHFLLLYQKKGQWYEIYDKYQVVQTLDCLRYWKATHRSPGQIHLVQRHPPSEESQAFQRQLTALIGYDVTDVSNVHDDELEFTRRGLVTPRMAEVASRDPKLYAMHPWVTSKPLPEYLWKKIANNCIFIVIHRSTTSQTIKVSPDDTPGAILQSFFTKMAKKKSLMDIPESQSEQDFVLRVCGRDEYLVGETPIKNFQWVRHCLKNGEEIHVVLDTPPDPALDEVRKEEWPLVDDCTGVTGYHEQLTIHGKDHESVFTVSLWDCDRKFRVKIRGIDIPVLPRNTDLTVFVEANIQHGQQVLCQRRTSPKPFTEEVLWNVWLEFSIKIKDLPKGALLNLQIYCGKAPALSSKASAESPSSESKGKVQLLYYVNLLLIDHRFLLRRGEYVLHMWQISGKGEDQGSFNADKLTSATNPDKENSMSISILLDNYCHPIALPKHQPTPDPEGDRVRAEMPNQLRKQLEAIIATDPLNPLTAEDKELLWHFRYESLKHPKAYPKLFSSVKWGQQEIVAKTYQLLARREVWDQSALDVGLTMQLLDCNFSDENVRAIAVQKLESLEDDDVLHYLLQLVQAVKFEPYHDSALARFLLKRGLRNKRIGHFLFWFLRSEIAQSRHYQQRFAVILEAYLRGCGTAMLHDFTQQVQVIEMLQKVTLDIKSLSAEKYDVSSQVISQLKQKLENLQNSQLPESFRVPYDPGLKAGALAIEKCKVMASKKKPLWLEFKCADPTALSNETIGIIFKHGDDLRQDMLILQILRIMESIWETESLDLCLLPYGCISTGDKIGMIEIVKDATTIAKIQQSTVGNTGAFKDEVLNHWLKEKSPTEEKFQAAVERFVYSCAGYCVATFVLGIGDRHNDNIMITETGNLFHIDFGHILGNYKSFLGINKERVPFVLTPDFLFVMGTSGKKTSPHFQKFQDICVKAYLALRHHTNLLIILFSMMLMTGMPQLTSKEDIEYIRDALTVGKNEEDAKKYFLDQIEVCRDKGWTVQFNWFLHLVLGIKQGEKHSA
# Sequence of Phosphatidylinositol 4,5-bisphosphate 3-kinase catalytic subunit alpha isoform (P42336 whole entry, canonical isoform): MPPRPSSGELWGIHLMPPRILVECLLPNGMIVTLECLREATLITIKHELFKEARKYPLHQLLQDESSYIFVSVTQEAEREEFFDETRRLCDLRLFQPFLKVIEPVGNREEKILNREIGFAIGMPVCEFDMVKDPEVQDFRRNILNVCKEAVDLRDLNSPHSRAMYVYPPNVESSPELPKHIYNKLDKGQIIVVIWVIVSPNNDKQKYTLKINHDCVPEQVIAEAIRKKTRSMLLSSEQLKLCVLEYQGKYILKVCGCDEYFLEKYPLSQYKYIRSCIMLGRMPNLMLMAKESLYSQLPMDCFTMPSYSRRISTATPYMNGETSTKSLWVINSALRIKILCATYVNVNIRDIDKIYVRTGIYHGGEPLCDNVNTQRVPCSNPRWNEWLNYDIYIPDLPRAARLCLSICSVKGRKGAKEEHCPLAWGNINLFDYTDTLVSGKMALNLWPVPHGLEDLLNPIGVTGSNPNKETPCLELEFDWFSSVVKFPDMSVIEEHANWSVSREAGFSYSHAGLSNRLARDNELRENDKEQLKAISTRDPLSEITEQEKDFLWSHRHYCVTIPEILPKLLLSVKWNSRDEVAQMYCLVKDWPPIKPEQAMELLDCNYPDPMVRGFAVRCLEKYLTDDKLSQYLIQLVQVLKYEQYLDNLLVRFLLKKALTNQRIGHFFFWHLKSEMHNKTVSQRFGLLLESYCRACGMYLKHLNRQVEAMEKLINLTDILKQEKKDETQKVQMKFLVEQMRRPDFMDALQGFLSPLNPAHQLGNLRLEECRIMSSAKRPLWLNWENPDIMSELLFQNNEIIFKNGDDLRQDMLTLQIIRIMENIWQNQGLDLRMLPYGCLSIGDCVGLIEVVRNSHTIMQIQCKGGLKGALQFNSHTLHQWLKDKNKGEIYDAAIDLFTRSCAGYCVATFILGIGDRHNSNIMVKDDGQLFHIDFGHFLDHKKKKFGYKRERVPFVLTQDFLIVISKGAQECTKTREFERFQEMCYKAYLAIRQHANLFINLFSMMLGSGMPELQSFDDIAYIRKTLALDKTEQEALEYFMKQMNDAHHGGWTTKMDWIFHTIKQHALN
smiles,measurement,setting,value
N#Cc1c(N)nc(N)nc1N1CC2(CC2)C[C@H]1c1nc2cccc(Cl)c2c(=O)n1Cc1ccc(C(=O)NO)s1,half-life,[1],27.6 min
same,AUC(0-inf),[2],632 ng·h/mL
same,Activity,[3],Dde
same,IC50,[4],> 5 µM
same,IC50,[5],150 nM
same,IC50,[6],1190 nM
same,IC50,[7],42 nM
same,IC50,[8],169 nM
same,IC50,[9],13 nM
same,clearance,[10],53 mL/min/kg
same,Activity,[11],Dde
same,IC50,[12],30.5 nM
same,IC50,[13],800 nM
same,Ratio IC50,[14],13
